Test [1] concerns Sprague-Dawley rats. Briefly: Hemorrhagic shock-induced vascular hyperpermeability: FITC-albumin flux in mesenteric postcapillary venules by intravital microscopy. The class given is in vivo, rat.
Text: For example, in an embodiment of the invention disclosed herein, Sprague-Dawley rats were anesthetized with urethane. Hemorrhagic shock was induced in the anesthetized rats by withdrawing blood to reduce the mean arterial pressure to 40 mm Hg for one hour. The rats were then resuscitated to 90 mmHg by administration of the shed blood and normal saline. Albumin labeled with fluorescein isothiocyanate (FITC) was given intravenously during the period in which shock was present. The mesenteric postcapillary venules in a transilluminated segment of small intestine were examined to quantitate changes in albumin flux using intravital microscopy.
For test [2], the system named is endothelial cells. The following applies: traumatized animals, hemorrhagic shock; Childs et al. 2008; cited from earlier work.

Here are results for two molecules from patent publication US20100189802A1, “Method for treatment of vascular hyperpermeability” (Scott and White Memorial Hospital and Scott, Sherwood, and …, priority 2007, published 2010).

`O=C(O)CCCCC1CCSS1` (stereo not drawn) [Alpha-lipoic acid, alpha-lipoic acid]: the “vascular hyperpermeability induced by hemorrhagic shock-induced apoptosis” value in test [1] (alpha-lipoic acid administered to traumatized animals) was “attenuated the amount of vascular hyperpermeability”. In addition, the vascular hyperpermeability result in test [1] (alpha-lipoic acid, about 100 mg/kg, before the onset of hemorrhagic shock) is “effective in reducing the amount of vascular hyperpermeability”; in test [1] (alpha-lipoic acid, about 100 mg/kg, within 60 minutes after the development of hemorrhagic shock), “effective in reducing the amount of vascular hyperpermeability”.

B1: Angiopoietin-1: an endothelial cell growth factor (protein, UniProt Q15389 16-498, looked up)
Angiopoietin-1: HIGCSNQRRSPENSGRRYNRIQHGQCAYTFILPEHDGNCRESTTDQYNTNALQRDAPHVEPDFSSQKLQHLEHVMENYTQWLQKLENYIVENMKSEMAQIQQNAVQNHTATMLEIGTSLLSQTAEQTRKLTDVETQVLNQTSRLEIQLLENSLSTYKLEKQLLQQTNEILKIHEKNSLLEHKILEMEGKHKEELDTLKEEKENLQGLVTRQTYIIQELEKQLNRATTNNSVLQKQQLELMDTVHNLVNLCTKEGVLLKGGKREEEKPFRDCADVYQAGFNKSGIYTIYINNMPEPKKVFCNMDVNGGGWTVIQHREDGSLDFQRGWKEYKMGFGNPSGEYWLGNEFIFAITSQRQYMLRIELMDWEGNRAYSQYDRFHIGNEKQNYRLYLKGHTGTAGKQSSLILHGADFSTKDADNDNCMCKCALMLTGGWWFDACGPSNLNGMFYTAGQNHGKLNGIKWHYFKGPSYSLRSTTMMIRPLDF
Consider B1, for which the vascular hyperpermeability entry in test [1] (angiopoietin-1 intravenously, 200 ng/ml, traumatized animals) was “attenuated the amount of vascular hyperpermeability”. In test [2], the “vascular hyperpermeability and apoptosis” value is “potent inhibitor of vascular hyperpermeability and apoptosis”.
